Holding throughout (assay): cell-based
For assay [1], the target named is T1, hNav1.7 (Homo sapiens, UniProt Q15858). The following applies: IonWorks Quattro; read-out: IC50 Nav1.7.
Assay [2] addresses T1, hNav1.7. It counts as cell-based. The following applies: PatchXpress, read-out: PX hNav1.7 Tonic IC50.
Another assay concerns the target hNav1.5 (Homo sapiens, UniProt Q14524). The following applies: for IC50: PatchXpress, read-out: PX hNav1.5 Tonic IC50.
The target in another assay is hNav1.4 (Homo sapiens, UniProt P35499). The following applies: for IC50: PatchXpress, read-out: PX hNav1.4 Tonic IC50.
Chain of hNav1.4 (P35499 whole entry): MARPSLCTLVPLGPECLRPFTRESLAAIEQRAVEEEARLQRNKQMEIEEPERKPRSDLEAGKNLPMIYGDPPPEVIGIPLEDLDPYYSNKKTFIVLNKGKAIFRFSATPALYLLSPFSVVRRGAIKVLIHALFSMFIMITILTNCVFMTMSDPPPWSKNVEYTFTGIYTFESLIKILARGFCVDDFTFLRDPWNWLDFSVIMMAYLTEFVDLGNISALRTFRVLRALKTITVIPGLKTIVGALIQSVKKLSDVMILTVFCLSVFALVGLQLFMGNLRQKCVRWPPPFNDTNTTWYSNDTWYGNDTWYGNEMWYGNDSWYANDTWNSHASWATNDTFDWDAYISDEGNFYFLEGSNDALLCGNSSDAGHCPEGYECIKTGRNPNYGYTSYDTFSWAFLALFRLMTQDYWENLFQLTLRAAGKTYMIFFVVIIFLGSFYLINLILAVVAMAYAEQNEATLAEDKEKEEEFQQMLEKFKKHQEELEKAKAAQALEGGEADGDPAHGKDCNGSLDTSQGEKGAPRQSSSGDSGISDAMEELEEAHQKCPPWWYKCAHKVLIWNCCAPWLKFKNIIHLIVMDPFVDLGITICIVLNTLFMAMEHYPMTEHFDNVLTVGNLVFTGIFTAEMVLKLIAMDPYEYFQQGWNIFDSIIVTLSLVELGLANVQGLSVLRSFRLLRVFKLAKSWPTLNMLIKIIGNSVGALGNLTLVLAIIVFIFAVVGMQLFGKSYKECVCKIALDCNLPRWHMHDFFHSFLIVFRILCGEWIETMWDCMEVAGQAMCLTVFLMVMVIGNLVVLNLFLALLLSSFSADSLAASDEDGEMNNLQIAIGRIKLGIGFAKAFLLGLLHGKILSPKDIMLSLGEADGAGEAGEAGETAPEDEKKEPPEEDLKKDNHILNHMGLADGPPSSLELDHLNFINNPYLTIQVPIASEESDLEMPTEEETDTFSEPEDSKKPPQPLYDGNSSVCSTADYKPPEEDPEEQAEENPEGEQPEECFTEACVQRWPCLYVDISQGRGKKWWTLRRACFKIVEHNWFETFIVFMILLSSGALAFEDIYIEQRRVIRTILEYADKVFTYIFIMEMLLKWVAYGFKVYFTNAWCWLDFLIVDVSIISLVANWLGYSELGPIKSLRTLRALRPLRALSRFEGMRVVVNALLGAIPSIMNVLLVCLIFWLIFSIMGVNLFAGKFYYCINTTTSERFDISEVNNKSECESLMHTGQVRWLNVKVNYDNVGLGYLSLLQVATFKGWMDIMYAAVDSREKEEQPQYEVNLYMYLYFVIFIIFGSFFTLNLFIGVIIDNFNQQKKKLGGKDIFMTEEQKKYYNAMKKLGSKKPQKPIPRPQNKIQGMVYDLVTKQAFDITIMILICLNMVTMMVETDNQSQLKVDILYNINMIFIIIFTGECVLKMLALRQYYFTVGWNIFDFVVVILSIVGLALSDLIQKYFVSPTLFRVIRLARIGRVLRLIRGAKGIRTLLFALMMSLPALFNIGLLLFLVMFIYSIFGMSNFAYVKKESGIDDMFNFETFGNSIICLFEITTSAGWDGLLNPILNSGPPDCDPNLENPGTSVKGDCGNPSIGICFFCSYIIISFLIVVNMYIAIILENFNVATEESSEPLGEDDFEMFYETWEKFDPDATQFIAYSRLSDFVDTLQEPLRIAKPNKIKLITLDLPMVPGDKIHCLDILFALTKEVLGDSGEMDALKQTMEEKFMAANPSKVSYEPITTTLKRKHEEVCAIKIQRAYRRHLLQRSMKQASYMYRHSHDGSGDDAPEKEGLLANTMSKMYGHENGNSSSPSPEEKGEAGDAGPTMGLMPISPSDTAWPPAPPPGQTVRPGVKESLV
Setting [3] is: * = at high concentrations compound would wash off slowly or not at all.

Read-outs that look alike come from different tables or passages of the source.

Chain of hNav1.5 (Q14524 whole entry): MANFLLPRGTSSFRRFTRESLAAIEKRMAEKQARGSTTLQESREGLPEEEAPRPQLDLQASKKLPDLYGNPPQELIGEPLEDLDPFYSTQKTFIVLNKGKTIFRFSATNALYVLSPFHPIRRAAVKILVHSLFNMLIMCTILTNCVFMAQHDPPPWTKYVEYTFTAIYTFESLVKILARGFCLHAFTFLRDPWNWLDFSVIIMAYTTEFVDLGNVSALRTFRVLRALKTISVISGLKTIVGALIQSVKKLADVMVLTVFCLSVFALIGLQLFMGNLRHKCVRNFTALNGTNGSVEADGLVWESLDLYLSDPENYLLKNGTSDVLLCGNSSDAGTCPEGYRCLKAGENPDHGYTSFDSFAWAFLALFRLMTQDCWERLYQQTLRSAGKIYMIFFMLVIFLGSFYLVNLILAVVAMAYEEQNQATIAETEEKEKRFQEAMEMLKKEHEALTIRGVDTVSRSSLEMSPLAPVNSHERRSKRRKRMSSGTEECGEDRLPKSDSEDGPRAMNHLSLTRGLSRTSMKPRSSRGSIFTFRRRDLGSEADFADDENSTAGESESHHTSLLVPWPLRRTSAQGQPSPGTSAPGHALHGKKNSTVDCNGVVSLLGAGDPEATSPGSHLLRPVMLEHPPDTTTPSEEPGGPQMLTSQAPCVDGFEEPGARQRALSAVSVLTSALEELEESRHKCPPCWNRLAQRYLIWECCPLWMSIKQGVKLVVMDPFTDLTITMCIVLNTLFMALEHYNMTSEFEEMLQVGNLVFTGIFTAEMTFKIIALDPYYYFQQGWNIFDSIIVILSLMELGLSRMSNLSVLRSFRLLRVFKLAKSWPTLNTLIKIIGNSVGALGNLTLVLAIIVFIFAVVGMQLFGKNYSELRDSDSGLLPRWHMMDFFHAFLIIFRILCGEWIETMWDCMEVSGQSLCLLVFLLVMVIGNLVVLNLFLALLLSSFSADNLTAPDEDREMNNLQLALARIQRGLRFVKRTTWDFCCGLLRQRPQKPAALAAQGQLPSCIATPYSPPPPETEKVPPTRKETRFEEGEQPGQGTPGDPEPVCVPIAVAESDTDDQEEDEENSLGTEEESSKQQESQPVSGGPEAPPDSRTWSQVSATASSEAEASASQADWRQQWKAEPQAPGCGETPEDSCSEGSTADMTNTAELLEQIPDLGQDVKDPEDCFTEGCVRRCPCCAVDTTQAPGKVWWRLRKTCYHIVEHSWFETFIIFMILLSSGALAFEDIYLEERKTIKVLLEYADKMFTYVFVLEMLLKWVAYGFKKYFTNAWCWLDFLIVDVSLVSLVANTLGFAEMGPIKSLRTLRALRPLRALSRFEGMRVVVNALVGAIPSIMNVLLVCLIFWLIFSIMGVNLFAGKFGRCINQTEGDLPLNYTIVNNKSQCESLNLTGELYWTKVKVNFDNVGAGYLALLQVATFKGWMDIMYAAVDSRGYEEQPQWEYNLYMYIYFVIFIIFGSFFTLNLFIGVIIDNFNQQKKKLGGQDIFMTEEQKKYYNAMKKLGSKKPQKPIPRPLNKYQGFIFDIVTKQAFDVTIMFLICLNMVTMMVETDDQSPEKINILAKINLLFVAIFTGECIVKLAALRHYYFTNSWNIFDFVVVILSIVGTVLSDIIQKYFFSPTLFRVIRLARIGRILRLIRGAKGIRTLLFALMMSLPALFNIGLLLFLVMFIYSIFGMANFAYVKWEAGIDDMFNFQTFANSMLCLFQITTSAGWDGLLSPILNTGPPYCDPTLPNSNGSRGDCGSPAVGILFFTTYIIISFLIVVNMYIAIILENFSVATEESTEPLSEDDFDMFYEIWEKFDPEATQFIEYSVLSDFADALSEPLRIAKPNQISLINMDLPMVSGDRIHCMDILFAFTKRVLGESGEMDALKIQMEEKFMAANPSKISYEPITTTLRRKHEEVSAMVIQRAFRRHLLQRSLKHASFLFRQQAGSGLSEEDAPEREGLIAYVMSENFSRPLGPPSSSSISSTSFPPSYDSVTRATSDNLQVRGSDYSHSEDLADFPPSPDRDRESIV

Take `CCCC[C@@H]1NC(=O)[C@H](Cc2c[nH]c3ccccc23)NC(=O)[C@H](CCCCN)NC(=O)[C@H](CCC(N)=O)NC(=O)[C@@H](NC(=O)[C@@H](N)Cc2ccc(O)cc2)CSSC[C@@H]2NC(=O)[C@@H]3CSSC[C@@H](C(=O)N[C@@H](CCCNC(=N)N)C(=O)N[C@@H](CCCCN)C(=O)N[C@H](C(=O)N[C@@H](Cc4c[nH]c5ccccc45)C(N)=O)[C@@H](C)CC)NC(=O)[C@H](Cc4c[nH]c5ccccc45)NC(=O)[C@H](CC(C)C)NC(=O)[C@H](CCCCN)NC(=O)[C@H](CSSC[C@H](NC(=O)[C@H]([C@@H](C)O)NC(=O)[C@H](Cc4c[nH]c5ccccc45)NC1=O)C(=O)N[C@@H](CC(=O)O)C(=O)N[C@@H](CO)C(=O)N[C@@H](CCCCN)C(=O)N[C@@H](CCCNC(=N)N)C(=O)N[C@@H](C)C(=O)N3)NC(=O)[C@H](CCC(=O)O)NC(=O)[C@H](CC(C)C)NC(=O)CNC(=O)[C@H](CCC(=O)O)NC2=O` [compound 294]: the IC50 on hNav1.7 [1] was 24 nM.

For `C#CC[C@H](N)C(=O)N[C@@H](Cc1ccc(O)cc1)C(=O)N[C@H]1CSSC[C@@H]2NC(=O)[C@@H]3CSSC[C@@H](C(=O)N[C@@H](CCCNC(=N)N)C(=O)N[C@@H](CCCCN)C(=O)N[C@H](C(=O)N[C@@H](Cc4c[nH]c5ccccc45)C(N)=O)[C@@H](C)CC)NC(=O)[C@H](Cc4c[nH]c5ccccc45)NC(=O)[C@H](CC(C)C)NC(=O)[C@H](CCCCN)NC(=O)[C@H](CSSC[C@H](NC(=O)[C@H]([C@@H](C)O)NC(=O)[C@H](Cc4c[nH]c5ccccc45)NC(=O)[C@H](CCSC)NC(=O)[C@H](Cc4c[nH]c5ccccc45)NC(=O)[C@H](CCCCN)NC(=O)[C@H](CCC(N)=O)NC1=O)C(=O)N[C@@H](CC(=O)O)C(=O)N[C@@H](CO)C(=O)N[C@@H](CCCCN)C(=O)N[C@@H](CCCNC(=N)N)C(=O)N[C@@H](C)C(=O)N3)NC(=O)[C@H](CCC(=O)O)NC(=O)[C@H](CC(C)C)NC(=O)CNC(=O)[C@H](CCC(=O)O)NC2=O` [compound 295], the IC50 at hNav1.7 [1] came out at 18 nM.

Consider `C#CC[C@H](N)C(=O)N[C@@H](Cc1ccc(O)cc1)C(=O)N[C@H]1CSSC[C@@H]2NC(=O)[C@@H]3CSSC[C@@H](C(=O)N[C@@H](CCCNC(=N)N)C(=O)N[C@@H](CCCCN)C(=O)N[C@H](C(=O)N[C@@H](Cc4c[nH]c5ccccc45)C(N)=O)[C@@H](C)CC)NC(=O)[C@H](Cc4c[nH]c5ccccc45)NC(=O)[C@H](CC(C)C)NC(=O)[C@H](CCCCN)NC(=O)[C@H](CSSC[C@H](NC(=O)[C@H]([C@@H](C)O)NC(=O)[C@H](Cc4c[nH]c5ccccc45)NC(=O)[C@H](CCCC)NC(=O)[C@H](Cc4c[nH]c5ccccc45)NC(=O)[C@H](CCCCN)NC(=O)[C@H](CCC(N)=O)NC1=O)C(=O)N[C@@H](CC(=O)O)C(=O)N[C@@H](CO)C(=O)N[C@@H](CCCCN)C(=O)N[C@@H](CCCNC(=N)N)C(=O)N[C@@H](C)C(=O)N3)NC(=O)[C@H](CCCNC(=N)N)NC(=O)[C@H](CC(C)C)NC(=O)CNC(=O)[C@H](CCC(=O)O)NC2=O` [compound 296], for which, on hNav1.7 [1], the 50% inhibitory concentration (IC50) came to 19 nM.

Regarding `C#CC[C@H](N)C(=O)N[C@@H](Cc1ccc(O)cc1)C(=O)N[C@H]1CSSC[C@@H]2NC(=O)[C@@H]3CSSC[C@@H](C(=O)N[C@@H](CCCNC(=N)N)C(=O)N[C@@H](CCCCN)C(=O)N[C@H](C(=O)N[C@@H](Cc4ccccc4)C(N)=O)[C@@H](C)CC)NC(=O)[C@H](Cc4c[nH]c5ccccc45)NC(=O)[C@H](CC(C)C)NC(=O)[C@H](CCCCN)NC(=O)[C@H](CSSC[C@H](NC(=O)[C@H]([C@@H](C)O)NC(=O)[C@H](Cc4c[nH]c5ccccc45)NC(=O)[C@H](CCCC)NC(=O)[C@H](Cc4c[nH]c5ccccc45)NC(=O)[C@H](CCCCN)NC(=O)[C@H](CCC(N)=O)NC1=O)C(=O)N[C@@H](CC(=O)O)C(=O)N[C@@H](CO)C(=O)N[C@@H](CCCCN)C(=O)N[C@@H](CCCNC(=N)N)C(=O)N[C@@H](C)C(=O)N3)NC(=O)[C@H](CCC(=O)O)NC(=O)[C@H](CC(C)C)NC(=O)CNC(=O)[C@H](CCC(=O)O)NC2=O` [compound 301], the IC50 at hNav1.7 [1] was 35 nM.

On to `CCCC[C@@H]1NC(=O)[C@H](Cc2c[nH]c3ccccc23)NC(=O)[C@H](CCCCN)NC(=O)[C@H](CCC(N)=O)NC(=O)[C@@H](NC(=O)[C@H](Cc2ccc(O)cc2)NC(=O)[C@@H](N)CCc2ccccc2)CSSC[C@@H]2NC(=O)[C@@H]3CSSC[C@@H](C(=O)N[C@@H](CCCNC(=N)N)C(=O)N[C@@H](CCCCN)C(=O)N[C@H](C(=O)N[C@H](C(N)=O)[C@@H](C)CC)[C@@H](C)CC)NC(=O)[C@H](Cc4c[nH]c5ccccc45)NC(=O)[C@H](CC(C)C)NC(=O)[C@H](CCCCN)NC(=O)[C@H](CSSC[C@H](NC(=O)[C@H]([C@@H](C)O)NC(=O)[C@H](Cc4c[nH]c5ccccc45)NC1=O)C(=O)N[C@@H](CC(=O)O)C(=O)N[C@@H](CO)C(=O)N[C@@H](CCCCN)C(=O)N[C@@H](CCCNC(=N)N)C(=O)N[C@@H](C)C(=O)N3)NC(=O)[C@H](CCCNC(=N)N)NC(=O)[C@H](CC(C)C)NC(=O)CNC(=O)[C@H](CCC(=O)O)NC2=O` [compound 379], for which the IC50 at hNav1.7 [2] (setting [3]) was 0.476 nM; on hNav1.5 (setting [3]), 440 nM; on hNav1.4 (setting [3]), 4.8 nM. On hNav1.4 (ratio of PX IC50 values), the Nav1.4/Nav1.7 amounted to 10.

As for `C#CC[C@H](N)C(=O)NCCOCCOCCOCCOCCC(=O)NCCCC[C@@H]1NC(=O)[C@@H]2CSSC[C@H](NC(=O)[C@H](Cc3ccc(O)cc3)NC(=O)[C@@H](N)CC#N)C(=O)N[C@@H](CCC(N)=O)C(=O)N[C@@H](CCCCN)C(=O)N[C@@H](Cc3c[nH]c4ccccc34)C(=O)N[C@@H](CCCC)C(=O)N[C@@H](Cc3c[nH]c4ccccc34)C(=O)N[C@@H]([C@@H](C)O)C(=O)N[C@H]3CSSC[C@H](NC(=O)[C@H](CCCNC(=N)N)NC(=O)[C@H](CC(C)C)NC(=O)CNC1=O)C(=O)N[C@@H](CCCCN)C(=O)N[C@@H](CC(C)C)C(=O)N[C@@H](Cc1c[nH]c4ccccc14)C(=O)N[C@H](C(=O)N[C@@H](CCCNC(=N)N)C(=O)N[C@@H](CCCCN)C(=O)N[C@H](C(=O)N[C@H](C(N)=O)[C@@H](C)CC)[C@@H](C)CC)CSSC[C@H](NC(=O)[C@H](C)NC(=O)[C@H](CCCNC(=N)N)NC(=O)[C@H](CCCCN)NC(=O)[C@H](CO)NC(=O)[C@H](CC(=O)O)NC3=O)C(=O)N2` [compound 385], on hNav1.7 [2] (tonic block), the IC50 turned out to be 3.64 nM. The Nav1.5/Nav1.7 on hNav1.5 (ratio of PX tonic IC50 values) is reported as 0. For the same compound, the Nav1.4/Nav1.7 at hNav1.4 (ratio of PX tonic IC50 values) was determined as 0.

As to `CCCC[C@@H]1NC(=O)[C@H](Cc2c[nH]c3ccccc23)NC(=O)[C@H](CCCCN)NC(=O)[C@H](CCC(N)=O)NC(=O)[C@@H](NC(=O)[C@H](Cc2ccc(O)cc2)NC(=O)[C@@H](N)Cc2cn(CCOCCOCCOCCOCCOCCOCCOCCOCCOCCOCCOCCNC(=O)CSCc3ccccc3)nn2)CSSC[C@@H]2NC(=O)[C@@H]3CSSC[C@@H](C(=O)N[C@@H](CCCNC(=N)N)C(=O)N[C@@H](CCCCN)C(=O)N[C@H](C(=O)N[C@H](C(N)=O)[C@@H](C)CC)[C@@H](C)CC)NC(=O)[C@H](Cc4c[nH]c5ccccc45)NC(=O)[C@H](CC(C)C)NC(=O)[C@H](CCCCN)NC(=O)[C@H](CSSC[C@H](NC(=O)[C@H]([C@@H](C)O)NC(=O)[C@H](Cc4c[nH]c5ccccc45)NC1=O)C(=O)N[C@@H](CC(=O)O)C(=O)N[C@@H](CO)C(=O)N[C@@H](CCCCN)C(=O)N[C@@H](CCCNC(=N)N)C(=O)N[C@@H](C)C(=O)N3)NC(=O)[C@H](CCCNC(=N)N)NC(=O)[C@H](CC(C)C)NC(=O)CNC(=O)[C@H](CCC(=O)O)NC2=O` [compound 427], the half-maximal inhibitory concentration (IC50) at hNav1.7 [2] (setting [3]) came out at 1.4 nM; at hNav1.5 (setting [3]), 1980 nM; at hNav1.4 (setting [3]) it was 13 nM. In addition, the Nav1.4/Nav1.7 at hNav1.4 (ratio of PX IC50 values) is reported as 9.

In the case of `CCCC[C@@H]1NC(=O)[C@H](Cc2c[nH]c3ccccc23)NC(=O)[C@H](CCCCN)NC(=O)[C@H](CCC(N)=O)NC(=O)[C@@H](NC(=O)[C@H](Cc2ccc(O)cc2)NC(=O)[C@@H](N)CC#N)CSSC[C@@H]2NC(=O)[C@@H]3CSSC[C@@H](C(=O)N[C@@H](CCCNC(=N)N)C(=O)N[C@@H](CCCCN)C(=O)N[C@@H](CCC(=O)O)C(=O)N[C@H](C(N)=O)[C@@H](C)CC)NC(=O)[C@H](Cc4c[nH]c5ccccc45)NC(=O)[C@H](CC(C)C)NC(=O)[C@H](CCCCN)NC(=O)[C@H](CSSC[C@H](NC(=O)[C@H]([C@@H](C)O)NC(=O)[C@H](Cc4c[nH]c5ccccc45)NC1=O)C(=O)N[C@@H](CC(=O)O)C(=O)N[C@@H](CO)C(=O)N[C@@H](CCCCN)C(=O)N[C@@H](CCCNC(=N)N)C(=O)N[C@@H](C)C(=O)N3)NC(=O)[C@H](CCCNC(=N)N)NC(=O)[C@H](CC(C)C)NC(=O)CNC(=O)[C@H](Cc1cn(CCCOCCOCCOCCOCCOCCOCCOCCOCCOCCOCCN)nn1)NC2=O` [compound 443], the IC50 was 5.62 nM on hNav1.7 [2] (setting [3]), 1330 nM on hNav1.5 (setting [3]) and 172 nM at hNav1.4 (setting [3]).

As for `C#CC[C@H](N)C(=O)NCCCC[C@@H]1NC(=O)[C@H](CCCNC(=N)N)NC(=O)[C@H](CCCCN)NC(=O)[C@H](CO)NC(=O)[C@H](CC(=O)O)NC(=O)[C@@H]2CSSC[C@@H]3NC(=O)[C@H](CCCNC(=N)N)NC(=O)[C@H](CC(C)C)NC(=O)CNC(=O)[C@H](CCC(=O)O)NC(=O)[C@H](CSSC[C@H](NC(=O)[C@H](Cc4ccc(O)cc4)NC(=O)[C@@H](N)CC#N)C(=O)N[C@@H](CCC(N)=O)C(=O)N[C@@H](CCCCN)C(=O)N[C@@H](Cc4c[nH]c5ccccc45)C(=O)N[C@@H](CC(C)C)C(=O)N[C@@H](Cc4c[nH]c5ccccc45)C(=O)N[C@@H]([C@@H](C)O)C(=O)N2)NC(=O)[C@H](CSSC[C@@H](C(=O)N[C@@H](CCCNC(=N)N)C(=O)N[C@@H](CCCCN)C(=O)N[C@@H](CCC(=O)O)C(=O)N[C@H](C(N)=O)[C@@H](C)CC)NC(=O)[C@H](Cc2c[nH]c4ccccc24)NC(=O)[C@H](CC(C)C)NC(=O)[C@H](CCCCN)NC3=O)NC1=O` [compound 449], the results for the IC50 at hNav1.7 [2] (tonic block), on hNav1.5 (tonic block) and at hNav1.4 (tonic block) were 1.5 nM, 1550 nM and 166 nM, respectively.

For the origin of these results see patent publication US9636418B2 (priority 2013, dated 2017).
